Laboratory results: US20090155784A1, “ASSESSMENT OF ASTHMA AND ALLERGEN-DEPENDENT GENE EXPRESSION” (Wyeth, priority 2007, published 2009)

Tested on: PBMCs from healthy volunteers
Test: HG-U133A baseline gene expression in PBMCs of healthy volunteers (HV), cPLA2 inhibitor in the absence of allergen (no AG)
Format: cell-based, human
Text: PBMCs were stimulated in vitro with a cocktail containing 4 different allergens from house dust mite, ragweed and cat. Recombinant allergens, Der p1, Der f2, Fel d1 (Indoor Biotech, Charlottesville, Va.) and natural ragweed allergen (Allergy Lab, Seattle, Wash.) were selected and screened for endotoxin contamination (LAL Endotoxin Test, Catalog #HIT302, sensitivity, 0.0001 Eu/ml, Cell Sciences, Canton, Mass.). The sensitivity of the subjects was unknown but the allergens were chosen based on the estimate that 80% of allergic individuals are believed to react to one or more of these allergens. Culture medium contained RPMI-1640 (Sigma) with 10% heat inactivated FCS (Sigma St. Louis, Mo.) and 100 unit/mL Penicillin and […] Streptomycin and 0.292 mg/mL Glutamine (GIBCO RL Invitrogen, Carlsbad, Calif.). The final allergen cocktail concentrations in culture medium were: Der p1 and Der f2 (dust mite), 1 mg/ml; Fel d1 (cat), 1.25 mg/ml; ragweed, 125 mg/ml. The total level of endotoxin contamination in culture medium was 0.057 Eu/ml. The cPLA2 inhibitor 4-{3-[1-benzhydryl-5-chloro-2-(2-{[(2,6-dimethylbenzyl)sulfonyl]amino}ethyl)-1H-indol-3-yl]propyl}benzoic acid was used at a concentration of 0.3 μM/ml. Zileuton, a 5-lipoxygenase inhibitor, was added at a concentration of 5 μM. The inhibitory activity of both the cPLA2 inhibitor and Zileuton samples were verified in a human whole blood assay. After 6 days in culture approximately 200 μL of supernatant was removed using an 8-channel pipettor without disturbing the cell pellet and placed into a collection plate for cytokine ELISA assays. To the remaining cell pellet 100 μL of RLT lysis buffer containing 1% beta-mercaptoethanol was added and snap frozen for RNA purification.
RNA was purified using QIA shredders and Rneasy mini kits (Qiagen, Valencia, Calif.). PBMC pellets frozen in RLT lysis buffer containing 1% β-mercaptoethanol were thawed and processed for total RNA isolation using the QIA shredder and RNeasy mini kit. A phenol:chloroform extraction was then performed, and the RNA was repurified using the RNeasy mini kit reagents. Eluted RNA was quantified using a Spectramax96 well plate UV reader (Molecular Devices, Sunnyvale, Calif., USA) monitoring A260/280 OD values. The quality of each RNA sample was assessed by capillary electrophoresis alongside an RNA molecular weight ladder on the Agilent 2100 bioanalyzer (Agilent Technologies, Palo Alto, Calif., USA). RNA samples were assigned quality values of intact (distinct 18S and 28S bands); partially degraded (discernible 18S and 28S bands with presence of low molecular weight bands) or completely degraded (no discernible 18S and 28S bands).
Labeled targets for oligonucleotide arrays were prepared using a modification of the procedure described by Lockhart et al. (Lockhart (1996) Nat. Biotechnol. 14:1675-80). Labeled targets were hybridized to the HG-U133A Affymetrix GeneChip Array as described in the Affymetrix technical manual. Eleven biotinylated control transcripts ranging in abundance from 3 parts per million (ppm) to 100 ppm were spiked into each sample to function as a standard curve (Hill (2001) Genome Biol. 2:RESEARCH0055). GeneChip MAS 5.0 software was used to evaluate the hybridization intensity, compute the signal value for each probe set and make an absent/present call.
GeneChips were required to pass the pre-set quality control criteria that the RNA quality metric required a 5′:3′ ratio. Two asthma subjects were excluded from the study due to failure to meet the RNA quality metric and 2 GeneChips from the group treated with cPLA2a inhibitor were excluded for the same reason. The signal value for each probe set was converted into a frequency value representative of the number of transcripts present in 10^6 transcripts by reference to the standard curve (Hill (2001) Genome Biol. 2:RESEARCH0055). […]

[1] = healthy population, no allergen

## Cc1cccc(C)c1CS(=O)(=O)NCCc1c(CCCc2ccc(C(=O)O)cc2)c2cc(Cl)ccc2n1C(c1ccccc1)c1ccccc1 [cPLA2 inhibitor, 4-{3-[1-benzhydryl-5-chloro-2-(2-{[(2,6-dimethylbenzyl)sulfonyl]amino}ethyl)-1H-indol-3-yl]propyl}benzoic acid]
[1]
  probes significantly downregulated in the presence of cPLA2 inhibition: 43 probes
  probes significantly upregulated in the presence of cPLA2 inhibition: 36 probes
Probeset 44673_at, gene SN
  Fold Change cPLA2 inhibitor vs. no AG HV: 1.425 fold
Probeset 58696_at, gene RRP41
  Fold Change cPLA2 inhibitor vs. no AG HV: 1.202 fold
Probeset 200886_s_at, gene PGAM1
  Fold Change cPLA2 inhibitor vs. no AG HV: −1.153 fold
Probeset 200887_s_at, gene STAT1
  Fold Change cPLA2 inhibitor vs. no AG HV: 1.158 fold
Probeset 200923_at, gene LGALS3BP
  Fold Change cPLA2 inhibitor vs. no AG HV: 1.268 fold
Probeset 200976_s_at, gene TAX1BP1
  Fold Change cPLA2 inhibitor vs. no AG HV: 1.159 fold
Probeset 201061_s_at, gene STOM
  Fold Change cPLA2 inhibitor vs. no AG HV: 1.242 fold
Probeset 201090_x_at, gene K-ALPHA-1
  Fold Change cPLA2 inhibitor vs. no AG HV: 1.122 fold
Probeset 201118_at, gene PGD
  Fold Change cPLA2 inhibitor vs. no AG HV: 1.22 fold
Probeset 201298_s_at, gene C2ORF6
  Fold Change cPLA2 inhibitor vs. no AG HV: 1.106 fold
Probeset 201463_s_at, gene TALDO1
  Fold Change cPLA2 inhibitor vs. no AG HV: 1.153 fold
Probeset 201649_at, gene UBE2L6
  Fold Change cPLA2 inhibitor vs. no AG HV: 1.19 fold
Probeset 201785_at, gene RNASE1
  Fold Change cPLA2 inhibitor vs. no AG HV: −3.602 fold
Probeset 201945_at, gene FURIN
  Fold Change cPLA2 inhibitor vs. no AG HV: 1.348 fold
Probeset 202068_s_at, gene LDLR
  Fold Change cPLA2 inhibitor vs. no AG HV: 1.388 fold
Probeset 202193_at, gene LIMK2
  Fold Change cPLA2 inhibitor vs. no AG HV: 1.457 fold
Probeset 202245_at, gene LSS
  Fold Change cPLA2 inhibitor vs. no AG HV: 1.264 fold
Probeset 202269_x_at, gene GBP1
  Fold Change cPLA2 inhibitor vs. no AG HV: 1.475 fold
Probeset 202307_s_at, gene TAP1
  Fold Change cPLA2 inhibitor vs. no AG HV: 1.313 fold
Probeset 202308_at, gene SREBF1
  Fold Change cPLA2 inhibitor vs. no AG HV: 1.436 fold
Probeset 202510_s_at, gene TNFAIP2
  Fold Change cPLA2 inhibitor vs. no AG HV: 1.355 fold
Probeset 202531_at, gene IRF1
  Fold Change cPLA2 inhibitor vs. no AG HV: 1.259 fold
Probeset 202626_s_at, gene LYN
  Fold Change cPLA2 inhibitor vs. no AG HV: 1.54 fold
Probeset 202841_x_at, gene OGFR
  Fold Change cPLA2 inhibitor vs. no AG HV: 1.239 fold
Probeset 202847_at, gene PCK2
  Fold Change cPLA2 inhibitor vs. no AG HV: 1.344 fold
Probeset 202859_x_at, gene IL8
  Fold Change cPLA2 inhibitor vs. no AG HV: 2.42 fold
Probeset 202917_s_at, gene S100A8
  Fold Change cPLA2 inhibitor vs. no AG HV: 1.662 fold
Probeset 203922_s_at, gene CYBB
  Fold Change cPLA2 inhibitor vs. no AG HV: 1.52 fold
Probeset 203923_s_at, gene CYBB
  Fold Change cPLA2 inhibitor vs. no AG HV: 1.214 fold
Probeset 204034_at, gene ETHE1
  Fold Change cPLA2 inhibitor vs. no AG HV: 1.212 fold
Probeset 204224_s_at, gene GCH1
  Fold Change cPLA2 inhibitor vs. no AG HV: 1.48 fold
Probeset 204326_x_at, gene UNK_NM_002450
  Fold Change cPLA2 inhibitor vs. no AG HV: 2.024 fold
Probeset 204745_x_at, gene MT1G
  Fold Change cPLA2 inhibitor vs. no AG HV: 2.215 fold
Probeset 204858_s_at, gene ECGF1
  Fold Change cPLA2 inhibitor vs. no AG HV: 1.292 fold
Probeset 204929_s_at, gene VAMP5
  Fold Change cPLA2 inhibitor vs. no AG HV: 1.472 fold
Probeset 205322_s_at, gene MTF1
  Fold Change cPLA2 inhibitor vs. no AG HV: 1.553 fold
Probeset 205872_x_at, gene UNK_NM_022359
  Fold Change cPLA2 inhibitor vs. no AG HV: 1.629 fold
Probeset 205992_s_at, gene IL15
  Fold Change cPLA2 inhibitor vs. no AG HV: 1.522 fold
Probeset 206025_s_at, gene TNFAIP6
  Fold Change cPLA2 inhibitor vs. no AG HV: 1.671 fold
Probeset 206026_s_at, gene TNFAIP6
  Fold Change cPLA2 inhibitor vs. no AG HV: 1.866 fold
Probeset 206637_at, gene GPR105
  Fold Change cPLA2 inhibitor vs. no AG HV: 1.797 fold
Probeset 207091_at, gene P2RX7
  Fold Change cPLA2 inhibitor vs. no AG HV: 1.272 fold
Probeset 207277_at, gene CD209
  Fold Change cPLA2 inhibitor vs. no AG HV: 1.574 fold
Probeset 207533_at, gene CCL1
  Fold Change cPLA2 inhibitor vs. no AG HV: 2.229 fold
Probeset 207697_x_at, gene LILRB2
  Fold Change cPLA2 inhibitor vs. no AG HV: 1.484 fold
Probeset 208071_s_at, gene LAIR1
  Fold Change cPLA2 inhibitor vs. no AG HV: 1.82 fold
Probeset 208373_s_at, gene P2RY6
  Fold Change cPLA2 inhibitor vs. no AG HV: 1.593 fold
Probeset 208671_at, gene TDE2
  Fold Change cPLA2 inhibitor vs. no AG HV: −1.137 fold
Probeset 208699_x_at, gene TKT
  Fold Change cPLA2 inhibitor vs. no AG HV: 1.243 fold
